As a reminder, the IC50 is the concentration that inhibits the measured activity by half.

Assay [1] deals with human telomeric (F21T) G-quadruplex DNA. The experiment in a line: FRET quadruplex stabilisation assay, F21T. In kind it is binding. The note with it: compound at 1 μM, 60 mM potassium cacodylate buffer pH 7.4. An excerpt:
(§1) The ability of the naphthalene diimide compounds to stabilize quadruplex DNA sequences was investigated using a fluorescence resonance energy transfer (FRET) assay modified to be used as a high-throughput screen in a 96-well format. Several quadruplex sequences were studied (including the human telomeric G-quadruplex DNA sequence 5′-FAM-d(GGG[TTAGGG]3)-TAMRA-3′ and the duplex sequence 5′-FAM-d[…]-HEG-[…]-TAMRA-3′ (HEG linker: [(—CH2—CH2—O—)6.
(§2) The labelled oligonucleotides have attached to them the donor fluorophore FAM: 6-carboxyfluorescein and the acceptor fluorophore TAMRA: 6-carboxytetramethylrhodamine. The FRET probe sequences were diluted from stock to the correct concentration (400 nM) in a 60 mM potassium cacodylate buffer (pH 7.4) and then annealed by heating to 85° C. for 10 min, followed by cooling to room temperature in the heating block. The compound was stored as a 10 mM stock solution in DMSO; final solutions (at 2× concentration) were prepared using 10 mM HCl in the initial 1:10 dilution, after which 60 mM potassium cacodylate buffer (pH 7.4) was used in all subsequent steps. The maximum HCl concentration in the reaction volume (at a ligand concentration of 20 μM) is thus 200 μM, well within the range of the buffer used. Relevant controls were also performed to check for interference with the assay. 96-Well plates (MJ Research, Waltham, Mass.) were prepared by aliquoting 50 μl of the annealed DNA into each well, followed by 50 μl of the compound solutions. Measurements were made on a DNA Engine Opticon (MJ Research) with excitation at 450-495 nm and detection at 515-545 nm. Fluorescence readings were taken at intervals of 0.5° C. in the range 30-100° C., with a constant temperature being maintained for 30 s prior to each reading to ensure a stable value. Final analysis of the data was carried out using a script written in the program Origin 7.0 (OriginLab Corp., Northampton, Mass.). The advanced curve-fitting function in Origin 7.0 was used for calculation of ΔTm values. All determinations were performed in triplicate or better. Esds in ΔTm are ±0.1° C.

In assay [2] the test system is Tloop (representing duplex DNA). The experiment in a line: FRET assay, Tloop duplex DNA. In kind it is binding. The following applies: compound at 1 μM, 60 mM potassium cacodylate buffer pH 7.4.
Source text: as §1, §2

Assay [3] concerns WI38 (lung fibroblast) cells. The experiment in a line: SRB growth inhibition, WI38. In kind it is cell-based, human. The note with it: 96 hr, SRB assay; read-out: short-term 96 hr IC50 WI38. The method, then:
(§3) Human cancer cell lines and the somatic human cell line WI-38 (lung fibroblast) were purchased from the American Type Culture Collection. Cell lines were maintained in appropriate medium supplemented with 10% foetal bovine serum (Invitrogen, UK), 2 mM L-glutamine (Invitrogen, Netherlands), and other components as specified by the suppliers. Cell lines were maintained at 37° C., 5% CO2 and routinely passaged. Drugs were dissolved in DMSO and filtered through 0.22 μm pore-size filter units before addition to cell line appropriate media. Cellular growth inhibition was measured using the sulforhodamine B (SRB) assay in 96 well plates. Fifty percent inhibitory concentrations (IC50) were determined by taking the mean absorbance at 540 nm for each drug concentration expressed as a percentage of the absorbance of untreated control wells.
A general note: In SRB staining, fixed cells bind dye roughly in proportion to their protein.

Assay [4] relates to Mia-PaCa2 (pancreatic cancer) cells. The experiment in a line: SRB growth inhibition, MiaPaCa2. In kind it is cell-based, human. The note with it: 96 hr, SRB assay; read-out: short-term 96 hr IC50 MiaPaCa2. The method, then: as §3
In assay [5] the test system is Bcl-2 sequence from the promoter region of the bcl-2 gene. The experiment in a line: FRET quadruplex stabilisation assay, Bcl-2. In kind it is binding. The note with it: compound at 1 μM, 60 mM potassium cacodylate buffer pH 7.4.
Source text: as §1, §2

For assay [6], the system named is Kras21 sequence from the promoter region of the kras gene. The experiment in a line: FRET quadruplex stabilisation assay, Kras21. In kind it is binding. The following applies: compound at 1 μM, 60 mM potassium cacodylate buffer pH 7.4.
Source text: as §1, §2

Assay [7] deals with Kras32 sequence from the promoter region of the kras gene. The experiment in a line: FRET quadruplex stabilisation assay, Kras32. In kind it is binding. The following applies: compound at 1 μM, 60 mM potassium cacodylate buffer pH 7.4.
Source text: as §1, §2

Assay [8] concerns Hsp90A sequence from the HSP90 promoter. The experiment in a line: FRET quadruplex stabilisation assay, Hsp90A. In kind it is binding. The following applies: compound at 1 μM, 60 mM potassium cacodylate buffer pH 7.4.
Source text: as §1, §2

Assay [9] relates to Panc1 (pancreatic cancer) cells. The experiment in a line: SRB growth inhibition, Panc1. In kind it is cell-based, human. The following applies: 96 hr, SRB assay; read-out: short-term 96 hr IC50 Panc1. The method, then:
as §3

Assay [10] relates to MCF7 (breast) cells. The experiment in a line: SRB growth inhibition, MCF7. The note with it: 96 hr, SRB assay; read-out: short-term 96 hr IC50 MCF7. In kind it is cell-based, human. The method, then:
as §3

The test system of assay [11] is ALT (Alternative Lengthening of Telomeres) cell line. The experiment in a line: SRB growth inhibition, ALT. In kind it is cell-based, human. The note with it: 96 hr, SRB assay; read-out: short-term 96 hr IC50 ALT. As to the method:
as §3

The subject of assay [12] is Hsp90B sequence from the HSP90 promoter. The experiment in a line: FRET quadruplex stabilisation assay, Hsp90B. In kind it is binding. The following applies: compound at 1 μM, 60 mM potassium cacodylate buffer pH 7.4.
Source text: as §1, §2

In assay [13] the test system is A549 (lung cancer) cells. The experiment in a line: SRB growth inhibition, A549. In kind it is cell-based, human. The note with it: 96 hr, SRB assay; read-out: short-term 96 hr IC50 A549. As to the method:
as §3

On to `CN1CCN(CCCNc2cc3c4c(ccc5c4c2C(=O)N(CCCN2CCOCC2)C5=O)C(=O)N(CCCN2CCOCC2)C3=O)CC1` [Compound 4a, 4-((3-(4-methylpiperazin-1-yl)propyl)amino)-2,7-bis(3-morpholinopropyl)benzo[Imn][3,8]phenanthroline-1,3,6,8(2H,7H)-tetraone], for which, in [1], the “ΔTm F21T” value is 14.3 °C. In addition, the “ΔTm Tloop” value in assay [2] came to 0.8 °C. The IC50 in [3] turned out to be 1830 nM; in assay [4] it was 59 nM; in assay [9] it was 45 nM; in assay [10], 357 nM; in assay [11] it was 224 nM; in assay [13], 67 nM. Moreover, the “ΔTm Bcl-2” value in assay [5] is 15.8 °C. For the same compound, in assay [6], the “ΔTm Kras21” value was 9.8 °C. In addition, the “ΔTm Kras32” value in assay [7] came to 6.1 °C. Moreover, the “ΔTm Hsp90A” value in assay [8] came to 19.8 °C. In assay [12], the “ΔTm Hsp90B” value amounted to 16.5 °C.

For the compound `CN1CCN(CCNc2cc3c4c(ccc5c4c2C(=O)N(CCCN2CCOCC2)C5=O)C(=O)N(CCCN2CCOCC2)C3=O)CC1` [Compound 4b, 4-((2-(4-methylpiperazin-1-yl)ethyl)amino)-2,7-bis(3-morpholinopropyl)benzo[Imn][3,8]phenanthroline-1,3,6,8(2H,7H)-tetraone], the “ΔTm F21T” value in assay [1] was determined as 12.3 °C. Besides, the “ΔTm Tloop” value in [2] was determined as 0.4 °C. Besides, the IC50 stood at 1490 nM in [3]; 48 nM in [4]; 46 nM in assay [9]; 316 nM in assay [10]; 85 nM in [11]; 86 nM in [13]. For the same compound, the “ΔTm Bcl-2” value in [5] came out at 15.1 °C. Also, the “ΔTm Kras21” value in assay [6] is 11.0 °C. Also, the “ΔTm Kras32” value in assay [7] worked out at 6.1 °C. Besides, the “ΔTm Hsp90A” value in assay [8] was 18.1 °C. In assay [12], the “ΔTm Hsp90B” value amounted to 15.0 °C.

With `O=C1c2ccc3c4c(c(NCCc5ccccn5)cc(c24)C(=O)N1CCCN1CCOCC1)C(=O)N(CCCN1CCOCC1)C3=O` [Compound 4d, 2,7-bis(3-morpholinopropyl)-4-((2-(pyridin-2-yl)ethyl)amino)benzo[Imn][3,8]phenanthroline-1,3,6,8(2H,7H)-tetraone], the “ΔTm F21T” value in assay [1] is below 2 °C. Further, the “ΔTm Tloop” value in assay [2] was determined as 0 °C. Besides, the IC50 is 2240 nM in assay [3]; 220 nM in assay [4]; 340 nM in assay [9]; 1070 nM in assay [10]; 1290 nM in assay [11]; 130 nM in [13]. In addition, the “ΔTm Bcl-2” value in assay [5] was determined as 2.8 °C. Also, the “ΔTm Kras21” value in assay [6] stood at 3.0 °C. The “ΔTm Kras32” value in assay [7] was 1.5 °C. The “ΔTm Hsp90A” value in [8] was found to be 2.5 °C. Also, the “ΔTm Hsp90B” value in assay [12] is below 2 °C.

Take `O=C1c2ccc3c4c(c(NCCCCN5CCCC5)cc(c24)C(=O)N1CCCN1CCOCC1)C(=O)N(CCCN1CCOCC1)C3=O` [Compound 4e, 2,7-bis(3-morpholinopropyl)-4-((4-(pyrrolidin-1-yl)butyl)amino)benzo[Imn][3,8]phenanthroline-1,3,6,8(2H,7H)-tetraone]: the “ΔTm F21T” value in assay [1] worked out at 15.9 °C. In assay [2], the “ΔTm Tloop” value was found to be 0.2 °C. The IC50 came to 1220 nM in assay [3]; 36 nM in [4]; 33 nM in [9]; 222 nM in assay [10]; 89 nM in assay [11]; 26 nM in assay [13]. Further, the “ΔTm Bcl-2” value in [5] was found to be 16.1 °C. The “ΔTm Kras21” value in assay [6] worked out at 11.7 °C. In [7], the “ΔTm Kras32” value was 6.6 °C. The “ΔTm Hsp90A” value in [8] worked out at 20.6 °C. Further, the “ΔTm Hsp90B” value in assay [12] is 16.9 °C.

Source of the values: patent US20190330197A1, “SUBSTITUTED NAPHTHALENE DIIMIDES AND THEIR USE” (UCL Business PLC, priority 2015, published 2019).
